From patent publication US10159725B2, “Composition of tumor-associated peptides and related anti-cancer vaccine for the treatment of gastric cancer and other cancers” (priority 2010, dated 2018)

How the values were obtained:
CD8+ T cells = test: In vitro priming of CD8+ T cells with pMHC/anti-CD28 coated beads, multimer readout (in vitro immunogenicity); assay type: cell-based, human; conditions: healthy HLA-A*24 donors, three stimulations; for Positive wells/wells tested [%]: at least 24 wells evaluable per peptide; for Positive donors/donors tested [%]: at least two donors evaluable per peptide
Experimental: In order to perform in vitro stimulations by artificial antigen presenting cells (aAPC) loaded with peptide-MHC complex (pMHC) and anti-CD28 antibody, we first isolated CD8 T cells from fresh HLA-A*24 leukapheresis products of healthy donors obtained from the Blood Bank Tuebingen.
Isolation of CD8+ lymphocytes was performed by positive selection using CD8 MicroBeads (Miltenyi Biotec, Bergisch-Gladbach, Germany).
Stimulations were initiated in 96-well plates by co-incubating 1×10^6 CD8+ T cells with 2×10^5 washed coated beads in 200 μl TCM supplemented with 5 ng/ml IL-12 (PromoCell) for 3-4 days at 37° C. Half of the medium was then exchanged by fresh TCM supplemented with 80 U/ml IL-2 and incubating was continued for 3-4 days at 37° C. This stimulation cycle was performed for a total of three times. […] For analysis, a BD LSRII SORP cytometer equipped with appropriate lasers and filters was used. Peptide specific cells were calculated as percentage of total CD8+ cells. Evaluation of multimeric analysis was done using the FLOWJO software (Tree Star, Oregon, USA). In vitro priming of specific multimer+ CD8+ lymphocytes was detected by appropriate gating and by comparing to negative control stimulations.

[1] = system: HLA-DR broad antigens (HLA-DR1 to DR7); test: ProImmune REVEAL MHC:peptide in vitro binding assay; set-up: species or system human; conditions: relative to pass/fail control
Experimental: The ProImmune REVEAL™ technology employs in vitro HLA-DR assembly assays to determine the on-rates for the MHC:peptide complex as one major determinant of the binding constant of individual peptides. The assay was performed by ProImmune (Oxford, UK). At a fixed time point, the amount of intact MHC:peptide complexes is measured and compared with the amount for a pass/fail control (relative weak binder). A strong, promiscuous HLA-DR binder is included as positive control. Values indicate amount of binding for the individual peptides and HLA-DR molecules relative to the pass/fail control.
In this assay, binding was compared to that of a pass/fail control binder, and to a positive control peptide for each HLA-DR antigen.

[2] = system: anti-survivin T-cell response; test: T-cell response in vaccinated prostate carcinoma patients (IFN-g ELISPOT, +/-ICS); assay type: in vivo, human

Sequence | Positive wells/wells tested [%] (CD8+ T cells) | Positive donors/donors tested [%] (CD8+ T cells) | in vitro binding to HLA-DR (in words) [1] | patients with induction of an anti-survivin T-cell response upon vaccination ([2]; among the 16 reacting patients of 19) | patients who reacted to the peptide (IFN-g ELISPOT, +/-ICS) ([2]; of the 19 patients vaccinated)
TYGNLLDYL (listed as Homo sapiens) [ABL1-001] | 13% | 50% | – | – | –
RFLSGIINF (listed as Homo sapiens) [NUF2-002] | 4% | 50% | – | – | –
LYQILQGIVF (listed as Homo sapiens) [CDC2-001] | 28% | 88% | – | – | –
TLGEFLKLDRERAKN (listed as Homo sapiens) [IMA-BIR-002] | – | – | promiscuous binding of IMA-BIR-002 to HLA-DR1, 3, 4 and 11 | 12 patients | 16 patients
SYIDVLPEF (listed as Homo sapiens) [MET-006] | 22% | 63% | – | – | –
SYNPLWLRI (listed as Homo sapiens) [ASPM-002] | 31% | 63% | – | – | –
FYISPVNKL (listed as Homo sapiens) [AVL9-001] | 50% | 100% | – | – | –
NYLPFIMEL (listed as Homo sapiens) [UCHL5-001] | 14% | 75% | – | – | –
NYLLYVSNF (listed as Homo sapiens) [MST1R-001] | 14% | 50% | – | – | –
VYIEKNDKL (listed as Homo sapiens) [ERBB3-001] | 15% | 83% | – | – | –
YYNAAGFNKL (listed as Homo sapiens) [UQCRB-001] | 38% | 100% | – | – | –
AYLVYTDRL (listed as Homo sapiens) [PPAP2C-001] | 54% | 100% | – | – | –
SYIIDPLNL (listed as Homo sapiens) [PROM1-001] | 26% | 83% | – | – | –
HYKPTPLYF (listed as Homo sapiens) [SMC4-001] | 9% | 75% | – | – | –
VYGIRLEHF (listed as Homo sapiens) [NUF2-001] | 25% | 100% | – | – | –
VWSDVTPLIF (VWSDVTPLTF; listed as Homo sapiens) [MMP11-001] | 11% | 33% | – | – | –
